# According to patent US8088818B2, “Catechol-based derivatives for treating or preventing diabetics” (National Taiwan University, priority 2006, dated 2012):
# Experiments:
# Type 2 diabetic rats = assay: Blood sugar lowering in insulin-induced type 2 diabetic rats after oral administration; format: in vivo, rat
# Protocol: (c) Insulin-induced type 2 diabetic rats: the abdominal cavity of the male Wistar rats of 12 weeks age are injected with 0.5 IU/kg long-term insulin (MonotardR HM) three times a day for fourteen days. Then, the 10 mg/kg tolbutamide, an anti-diabetic drug of sulfonylurea class, is injected into the abdominal cavity. Phlebotomize 0.1 ml blood respectively at the preadministration and the postadministration of sixty minutes, and calculate the reduced value of the blood sugar. If the variation of the ability of lowering blood sugar is less than 10%, which is deemed as the type II (insulin resistance) diabetes rat.
# (d) The administration: Dissolve the medicine equivalently in deionized water, and then administrate the mentioned solution into the normal and diabetic rats by an orally perfusion. Keep with the desired concentration of the perfusion amount by taking suitable amount of the medicine solution according to the weight of the different animal.
# The rats to be experimented should undergo a starvation for 8-12 hours overnight. Next day, the rats are anesthetized with 30 mg/kg pentobarbital by injecting into the abdominal cavity. After the rats fall asleep, fix the rats on the board with the rubber band. Open the groin, find the veins, bleed 0.1 ml blood from an empty stomach, and then feed the medicine into the body of the rats by taking orally. After 90 minutes, bleed and perform a centrifugation (13,000 rpm, 5 minutes) to separate the serum and the plasma. Take the 10 μl supernatant of the serum and add 1 ml reagent of the glucose kit thereinto by gently mixing. React for 5 minutes at 37 °C, followed by detecting the value of the blood sugar by means of BST330 based on the different absorption level. […] The value of the blood sugar (mg/dL) is calculated by comparing the level of redness with contrasting the standard curve.
# (The value of blood sugar at postadministration)−(The value of blood sugar at preadministration)/(The value of blood sugar at preadministration)×100%
# rats = assay: Intravenous glucose tolerance test (IGTT); format: in vivo, rat; settings: oral 0.5 mg/ml/kg; 1000 mg/kg glucose intravenous, 30 minutes
# type I diabetic rats = assay: Safety evaluation: survival rate of type I diabetic rats; format: in vivo, rat; settings: for Survival rate (%) of rats: p.o., after seven days
# Protocol: Table 13 is a safety evaluation, wherein the type I diabetic rats are respectively orally administrated with the compound 370G at the dosage of 10 mg/kg and 30 mg/kg.
# coronary artery = assay: Flow rate of the coronary artery in the isolated perfused rat heart (Langendorff); settings: for coronary flow: isolated Wistar rat heart
# Protocol: Each of the male Wistar rats weighs about 200-250 grams, and is anesthetized with 25 mg/kg pentobarbital and 16 mg/kg heparin by injecting into the abdominal cavity. After falling asleep, separate the cervical vertebra and immediately take the heart out hanging on the constant pouring pressure circulation instrument (Langendorff, AD Instruments Pty Ltd, ML870B2) and fill a 37[…] pouring solution of 95% of oxygen and 5% of carbon dioxide with the artery (119.7 mM NaCl, 23.8 mM NaHCO3, 5.6 mM glucose, 1.2 mM CaCl2, 1.1 mM MgCl2, 0.3 mM NaH2PO4, and 5.0 mM KCl), which washes the heart and clean out the blood water by pouring in a reverse direction. The rate of the reverse pouring is 10 ml/min, followed by maintaining the pouring pressure of the coronary artery at 80 mmHg. After balancing for thirty minutes, measure the rate of the pouring solution flowing in the heart, and observe the change of the rate the pouring solution flowing in the heart while the testing drug is added.
structure (smiles),measurement,setting,value
O=C(/C=C/c1ccc(O)c(O)c1)NCCc1ccccc1 [370G (45)],% decrease in plasma glucose,"Type 2 diabetic rats; type 2 diabetic rats, 0.05 mg/kg oral, 90 min",7.4 ± 2.6%
same,% decrease in plasma glucose,"Type 2 diabetic rats; type 2 diabetic rats, 0.1 mg/kg oral, 90 min",17.2 ± 2.6 %
same,% decrease in plasma glucose,"Type 2 diabetic rats; type 2 diabetic rats, 0.5 mg/kg oral, 90 min",20.1 ± 3.4 %
same,% decrease in plasma glucose,"Type 2 diabetic rats; type 2 diabetic rats, 1.0 mg/kg oral, 90 min",23.3 ± 3.3 %
same,% decrease in plasma glucose,"Type 2 diabetic rats; type II diabetic rats, 0.5 mg/kg, p.o., 90 minutes",20.0 ± 7.7%
same,reducing the blood sugar (in words),"Type 2 diabetic rats; type II diabetics rats, oral 0.05 to 1.0 mg/kg",phenomenon of reducing the blood sugar are shown
same,glucose availability in IGTT versus control,rats,raised
same,Survival rate (%) of rats,type I diabetic rats; 10 mg/kg,100%
same,Survival rate (%) of rats,type I diabetic rats; 30 mg/kg,100%
same,effect on survival rate (in words),"type I diabetic rats; oral 10 mg/kg and 30 mg/kg, seven days",do not affect the survival rate
same,effect on coronary flow rate (in words),"coronary artery; Wistar rats, Tables 15 and 16",capable of increasing the coronary flow rate
same,coronary flow,coronary artery; conc. 0 (baseline),11.8 ± 1.0 mL/min
same,coronary flow,coronary artery; conc. 0.1 (unit printed .[…]M),12.4 ± 1.1 mL/min
same,coronary flow,coronary artery; conc. 0.3 (unit printed .[…]M),13.2 ± 1.4 mL/min
same,coronary flow,coronary artery; conc. 1 (unit printed .[…]M),15.6 ± 1.2 mL/min
same,coronary flow,coronary artery; conc. 3 (unit printed .[…]M),17.4 ± 1.3 mL/min
same,coronary flow,coronary artery; conc. 10 (unit printed .[…]M),19.5 ± 0.7 mL/min
